# Source: patent US20240101563A1, “NOVEL COMPOUNDS” (AC Immune SA, priority 2022, published 2024)
# Structures can show the parent of a compound that is named as a salt.
# How the values were obtained:
# [1] = tested on: NLRP3 inflammasome pathway; test: NLRP3 inflammasome pathway activation assay, MSU stimulation, IL-1β HTRF; assay type: cell-based; settings: MSU 200 μg/mL for 3 h, IL-1β release, read-out: IC50 Human monocyte-like cells MSU
# Method: (§1) The following assays were used to determine the inhibitory activity of test compounds on the NLRP3 inflammasome pathway using common stimuli Nigericin (Invivogen) or monosodium urate crystals (MSU) (Invivogen).
# (§2) Human monocyte-like cells were cultured in RPMI-1640 Glutamax medium supplemented with 10% heat inactivated FBS (Fetal Bovine Serum) and 50 U/mL penicillin-streptomycin (Life Technologies).
# (§3) Human monocyte-like cells were seeded at 25000 per well in a 384-well plate and were differentiated overnight into macrophages with 10 ng/mL PMA (Phorbol Myristate Acetate). The following day, medium containing 10 ng/mL LPS (Lipopolysaccharide) was added. After 3 hours of LPS priming, concentrations of test compound in the range from […] were added 30 min prior to NLRP3 inflammasome pathway stimulation with Nigericin 3.75 μM or MSU 200 μg/mL for 3 h.
# (§4) For IL-1p quantification, supernatants were analyzed using HTRF kit according to the manufacturer's instructions (Cisbio 62HIL1BPEH). Briefly, in a 384-well ProxiPlate™ microplate, 8 μl of sample was mixed, with 5 μl of Anti-IL1β Cryptate antibody (40×) and Anti-IL1β XL antibody (40×). Then, incubated overnight at RT. Reading was done using an EnVision Reader (PerkinElmer).
# (§5) IC50 (concentration corresponding to 50% inhibition) were determined using GraphPad Prism 9.
# [2] = tested on: NLRP3 inflammasome pathway; test: NLRP3 inflammasome pathway activation assay, Nigericin stimulation, IL-1β HTRF; assay type: cell-based; settings: Homo sapiens, 3 h, Table 7; PMA-differentiated, LPS-primed cells; Nigericin 3.75 μM for 3 h; IL-1β release; read-out: IC50 Human monocyte-like cells Nigericin
# Method: as §1, §2, §3, §4, §5
# [3] = Homo sapiens, 3 h, Table 7, PMA-differentiated, LPS-primed cells
# [4] = Table 7, PMA-differentiated, LPS-primed cells
"IC50 [1, 3]",SMILES,also measured
< 0.1 µM,"COc1nc2nc(-c3c(C)cc(Cl)cc3O)n(C)c2cc1CO [Example 70, 5-chloro-2-[6-(hydroxymethyl)-5-methoxy-1-methyl-imidazo[4,5-b]pyridin-2-yl]-3-methyl-Phenol]",
< 0.1 µM,"Cc1cc(Cl)cc(O)c1-c1nc2nc(N3CCOCC3)cnc2n1C [Example 66, 5-chloro-3-methyl-2-(1-methyl-5-morpholino-imidazo[4,5-b]pyrazin-2-yl)phenol]",
< 0.1 µM,"Cc1cc(Cl)cc(O)c1-c1nc2nc(N3CCC4CCN(C)CC43)cnc2n1C (racemic) [Example 76, 5-chloro-3-methyl-2-[1-methyl-5-(6-methyl-3,3a,4,5,7,7a-hexahydro-2H-pyrrolo[2,3-c]pyridin-1-yl)imidazo[4,5-b]pyrazin-2-yl]phenol]",
< 0.1 µM,"Cc1cc(Cl)cc(O)c1-c1nc2nc(N3CC[C@@H]4CCN(C)C[C@@H]43)cnc2n1C (relative stereo) [Example 77A, 5-chloro-3-methyl-2-[1-methyl-5-[rel-(3aS,7aR)-6-methyl-3,3a,4,5,7,7a-hexahydro-2H-pyrrolo[2,3-c]pyridin-1-yl]imidazo[4,5-b]pyrazin-2-yl]phenol]",
0.1 to 1 µM,"Cc1cc(Cl)cc(O)c1-c1nc2nc(NC3CCC(F)(F)C3)ccc2n1C (racemic) [Example 11, 5-chloro-2-(5-((3,3-difluorocyclopentyl)amino)-1-methyl-1H-imidazo[4,5-b]pyridin-2-yl)-3-methylphenol]",
0.1 to 1 µM,"CC(C)n1c(-c2ccc(C(F)(F)F)cc2O)nc2nc(N[C@@H]3CCCN(C)C3)ccc21 [Example 13, (R)-2-(1-isopropyl-5-((1-methylpiperidin-3-yl)amino)-1H-imidazo[4,5-b]pyridin-2-yl)-5-(trifluoromethyl)phenol]",
< 0.1 µM,"COc1nc2c(nc1N[C@@H]1CCN(C)C1)nc(-c1c(C)cc(C(F)(F)F)cc1O)n2C [Example 72, (R)-2-(6-methoxy-1-methyl-5-((1-methylpyrrolidin-3-yl)amino)-1H-imidazo[4,5-b]pyrazin-2-yl)-3-methyl-5-(trifluoromethyl)phenol]",
0.1 to 1 µM,"COc1ccc2c(n1)nc(-c1ccc(C(F)(F)F)cc1O)n2C(C)C [Example 35, 2-(1-isopropyl-5-methoxy-1H-imidazo[4,5-b]pyridin-2-yl)-5-(trifluoromethyl)phenol]",
> 1 µM,"Cc1cc(C(F)(F)F)cc(O)c1-c1nc2nc(NCC(C)(C)O)ccc2n1C [Example 6, 2-(5-((2-hydroxy-2-methylpropyl)amino)-1-methyl-1H-imidazo[4,5-b]pyridin-2-yl)-3-methyl-5-(trifluoromethyl)phenol]",
0.1 to 1 µM,"CCn1c(-c2ccc(C(F)(F)F)cc2O)nc2nc(N[C@@H]3CCCN(C)C3)ccc21 [Example 12, (R)-2-(1-ethyl-5-((1-methylpiperidin-3-yl)amino)-1H-imidazo[4,5-b]pyridin-2-yl)-5-(trifluoromethyl)phenol]",
0.1 to 1 µM,"Cc1cc(Cl)cc(O)c1-c1nc2nc(NC3CN(C)CC3(F)F)ccc2n1C (centres unmarked) [Example 62, 5-chloro-2-(5-((4,4-difluoro-1-methylpyrrolidin-3-yl)amino)-1-methyl-1H-imidazo[4,5-b]pyridin-2-yl)-3-methylphenol HCl Salt]",
< 0.1 µM,"COc1cnc2c(n1)nc(-c1c(C)cc(C(F)(F)F)cc1O)n2C [Example 56, 2-(5-methoxy-1-methyl-1H-imidazo[4,5-b]pyrazin-2-yl)-3-methyl-5-(trifluoromethyl)phenol]",
< 0.1 µM,"Cc1cc(C(F)(F)F)cc(O)c1-c1nc2nc(N3CCOCC3)ccc2n1C [Example 79, 3-methyl-2-(1-methyl-5-morpholino-imidazo[4,5-b]pyridin-2-yl)-5-(trifluoromethyl)phenol]",

# The next lines start with the compound.
SMILES,"IC50 [1, 3]",also measured
"Cc1cc(C(F)(F)F)cc(O)c1-c1nc2nc(N[C@H]3CCCC[C@@H]3O)ccc2n1C (single isomer, unassigned) [Example 20, 2-(5-((2-hydroxycyclohexyl)amino)-1-methyl-1H-imidazo[4,5-b]pyridin-2-yl)-3-methyl-5-(trifluoromethyl)phenol]",0.1 to 1 µM,IC50 [2]: > 1 µM
"CCn1c(-c2c(C)cc(C(F)(F)F)cc2O)nc2nc(OCCO)ccc21 [Example 32, 2-(1-ethyl-5-(2-hydroxyethoxy)-1H-imidazo[4,5-b]pyridin-2-yl)-3-methyl-5-(trifluoromethyl)phenol]",< 0.1 µM,IC50 [2]: 0.1 to 1 µM
"Cc1cc(C(F)(F)F)cc(O)c1-c1nc2nc(O[C@@H]3CCCN(C)C3)ccc2n1C [Example 26, (R)-3-methyl-2-(1-methyl-5-((1-methylpiperidin-3-yl)oxy)-1H-imidazo[4,5-b]pyridin-2-yl)-5-(trifluoromethyl)phenol]",< 0.1 µM,IC50 [2]: 0.1 to 1 µM
COc1ccc2c(n1)nc(-c1c(C)cc(C(F)(F)F)cc1O)n2C [Example 23],< 0.1 µM,IC50 [2]: 0.1 to 1 µM
"Cc1cc(C(F)(F)F)cc(O)c1-c1nc2nc(OCCO)ccc2n1C(C)C [Example 33, 2-(5-(2-hydroxyethoxy)-1-isopropyl-1H-imidazo[4,5-b]pyridin-2-yl)-3-methyl-5-(trifluoromethyl)phenol]",0.1 to 1 µM,
"CNc1ccc2c(n1)nc(-c1c(C)cc(C(F)(F)F)cc1O)n2C [Example 3, 3-methyl-2-(1-methyl-5-(methylamino)-1H-imidazo[4,5-b]pyridin-2-yl)-5-(trifluoromethyl) phenol]",0.1 to 1 µM,
"Cn1c(-c2ccc(C(F)(F)F)cc2O)nc2nc(O[C@H]3CC[C@H](O)C3)ccc21 (single isomer, unassigned) [Example 37B, trans-2-(5-((3-hydroxycyclopentyl)oxy)-1-methyl-1H-imidazo[4,5-b]pyridin-2-yl)-5-(trifluoromethyl)phenol]",,"IC50 [1, 4]: 0.1 to 1 µM"
"CN1CCC[C@@H](Nc2ccc3cn(-c4ccc(Cl)cc4O)nc3n2)C1 [Example 43, (R)-5-chloro-2-(6-((1-methylpiperidin-3-yl)amino)-2H-pyrazolo[3,4-b]pyridin-2-yl)phenol]",< 0.1 µM,
"OCCNc1ccc2cn(-c3ccc(C(F)(F)F)cc3O)nc2n1 [Example 48, 2-(6-((2-hydroxyethyl)amino)-2H-pyrazolo[3,4-b]pyridin-2-yl)-5-(trifluoromethyl)phenol]",0.1 to 1 µM,
"CNc1ccc2cn(-c3ccc(C(F)(F)F)cc3O)nc2n1 [Example 41, 2-[6-(methylamino)pyrazolo[3,4-b]pyridin-2-yl]-5-(trifluoromethyl)phenol]",0.1 to 1 µM,
"Cc1cc(C(F)(F)F)cc(O)c1-c1nc2nc(NC3CCN(C)C3)ccc2n1C (single isomer, unassigned) [Example 18B, 3-methyl-2-(1-methyl-5-((1-methylpyrrolidin-3-yl)amino)-1H-imidazo[4,5-b]pyridin-2-yl)-5-(trifluoromethyl)phenol]",,"IC50 [1, 4]: 0.1 to 1 µM"
CN1CCC[C@@H](Nc2ccc3c(n2)nc(-c2ccc(C(F)(F)F)cc2O)n3C)C1 [Example 2],0.1 to 1 µM,"IC50 ([1]; Homo sapiens, 3 h, Table 8 (formula II′/II vs formula III)): 0.1 to 0.5 µM"
"CN1CCC[C@@H](Nc2ccc3cn(-c4ccc(C(F)(F)F)cc4O)nc3n2)C1 [Example 40, (R)-2-(6-((1-methylpiperidin-3-yl)amino)-2H-pyrazolo[3,4-b]pyridin-2-yl)-5-(trifluoromethyl)phenol formate]",< 0.1 µM,
"Oc1cc(C(F)(F)F)ccc1-n1cc2ccc(OC(F)(F)F)nc2n1 [Example 45, 2-[6-(trifluoromethoxy)pyrazolo[3,4-b]pyridin-2-yl]-5-(trifluoromethyl)phenol]",0.1 to 1 µM,
